Data reported in paper PMC10364322, “Evaluation of chronic drug-induced electrophysiological and cytotoxic effects using human-induced pluripotent stem cell-derived cardiomyocytes (hiPSC-CMs)” (Frontiers in Pharmacology, 2023).
Like-named read-outs stand apart in the source and are kept apart here.

System: hiPSC-CMs (iCell-Cardiomyocytes^2)
Summary of the method: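 Monolayers of hiPSC-CMs on fibronectin-coated MEA plates, 50 K/well, kept at 37°C, 5% CO2; compounds added in 0.1% final DMSO after 5-min baseline. Field potential and impedance parameters expressed as mean ± SD percent change from baseline; arrhythmic events noted; cytotoxicity fluorescence normalized to DMSO, Kruskal-Wallis.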

With `Cc1cn(-c2cc(NC(=O)c3ccc(C)c(Nc4nccc(-c5cccnc5)n4)c3)cc(C(F)(F)F)c2)cn1` [Nilotinib] as the compound, how does the “Beating below threshold, number of observations/total well numbers” value (0.3 µM, 2h) read?
The value was 0/5.

And the “Cessation of beating, number of observations/total well numbers” value (0.3 µM, 2h)?
Its value is 0/5.

What about the “EAD, number of observations/total well numbers” value (0.3 µM, 2h) of the same compound?
Its value is 0/5.

And the “FPD (field-potential duration), % change from baseline” value (0.3 µM, 2h)?
Its value is 22.4±5.4 %.

And the “FPDc (field-potential duration corrected by beat-rate), % change from baseline” value (from here on “FPDc … % change from baseline”) (0.3 µM, 2h)?
Its value is 20.8±5.2 %.

And the “Flat T-wave-like, number of observations/total well numbers” value (0.3 µM, 2h)?
The value was 0/5.

And the “BR (beat rate) % change from baseline” value (0.3 µM, 24h)?
Its value is -17±2 %.

What about the “Beating below threshold, number of observations/total well numbers” value (0.3 µM, 24h) of the same compound?
The value was 0/5.

What about the “Cessation of beating, number of observations/total well numbers” value (0.3 µM, 24h) of the same compound?
The value was 0/5.

What about the “EAD, number of observations/total well numbers” value (0.3 µM, 24h) of the same compound?
Its value is 0/5.

And the “FPD (field-potential duration), % change from baseline” value (0.3 µM, 24h)?
The value was 61.6±9.1 %.

What about the “FPDc … % change from baseline” value (0.3 µM, 24h) of the same compound?
The value was 52.4±8.3 %.

What about the “Flat T-wave-like, number of observations/total well numbers” value (0.3 µM, 24h) of the same compound?
Its value is 0/5.

And the “BR (beat rate) % change from baseline” value (0.3 µM, 48h)?
Its value is -13±1%.

What about the “Beating below threshold, number of observations/total well numbers” value (0.3 µM, 48h) of the same compound?
Its value is 0/5.

What about the “Cessation of beating, number of observations/total well numbers” value (0.3 µM, 48h) of the same compound?
Its value is 0/5.

What about the “EAD, number of observations/total well numbers” value (0.3 µM, 48h) of the same compound?
Its value is 0/5.

What about the “FPD (field-potential duration), % change from baseline” value (0.3 µM, 48h) of the same compound?
Its value is 46.7±15.8 %.

What about the “FPDc … % change from baseline” value (0.3 µM, 48h) of the same compound?
Its value is 39.9±14.5 %.

And the “Flat T-wave-like, number of observations/total well numbers” value (0.3 µM, 48h)?
Its value is 0/5.

And the “BR (beat rate) % change from baseline” value (0.3 µM, 72h)?
The value was -19±3 %.

And the “Beating below threshold, number of observations/total well numbers” value (0.3 µM, 72h)?
The value was 0/5.

And the “Cessation of beating, number of observations/total well numbers” value (0.3 µM, 72h)?
The value was 0/5.

What about the “EAD, number of observations/total well numbers” value (0.3 µM, 72h) of the same compound?
The value was 0/5.

And the “FPD (field-potential duration), % change from baseline” value (0.3 µM, 72h)?
Its value is 59.3±17.6 %.

And the “FPDc … % change from baseline” value (0.3 µM, 72h)?
The value was 48.5±15 %.

And the “Flat T-wave-like, number of observations/total well numbers” value (0.3 µM, 72h)?
Its value is 0/5.

What about the “BR (beat rate) % change from baseline” value (0.3 µM, 96h) of the same compound?
Its value is -23±2%.

And the “Beating below threshold, number of observations/total well numbers” value (0.3 µM, 96h)?
Its value is 0/5.

And the “Cessation of beating, number of observations/total well numbers” value (0.3 µM, 96h)?
The value was 0/5.

And the “EAD, number of observations/total well numbers” value (0.3 µM, 96h)?
The value was 0/5.

And the “FPD (field-potential duration), % change from baseline” value (0.3 µM, 96h)?
The value was 57±11 %.

And the “FPDc … % change from baseline” value (0.3 µM, 96h)?
The value was 44.7±10.1 %.

What about the “Flat T-wave-like, number of observations/total well numbers” value (0.3 µM, 96h) of the same compound?
The value was 1/5.

What about the “wells displaying EAD-like events” value (1 µM) of the same compound?
The value was “one of five wells”.

What about the “BR (beat rate) % change from baseline” value (1 µM, 2h) of the same compound?
Its value is -15±5 %.

And the “Beating below threshold, number of observations/total well numbers” value (1 µM, 2h)?
Its value is 0/5.

What about the “Cessation of beating, number of observations/total well numbers” value (1 µM, 2h) of the same compound?
The value was 0/5.

What about the “EAD, number of observations/total well numbers” value (1 µM, 2h) of the same compound?
The value was 1/5.

And the “FPD (field-potential duration), % change from baseline” value (1 µM, 2h)?
The value was 80.6±28.8 %.

And the “FPDc … % change from baseline” value (1 µM, 2h)?
The value was 70.6±24.2 %.

What about the “Flat T-wave-like, number of observations/total well numbers” value (1 µM, 2h) of the same compound?
Its value is 0/5.

And the “BR (beat rate) % change from baseline” value (1 µM, 24h)?
The value was -42±3 %.

What about the “Beating below threshold, number of observations/total well numbers” value (1 µM, 24h) of the same compound?
The value was 0/5.

What about the “Cessation of beating, number of observations/total well numbers” value (1 µM, 24h) of the same compound?
The value was 0/5.

And the “EAD, number of observations/total well numbers” value (1 µM, 24h)?
The value was 1/5.

And the “FPD (field-potential duration), % change from baseline” value (1 µM, 24h)?
Its value is 264.1±51.3 %.

And the “FPDc … % change from baseline” value (1 µM, 24h)?
Its value is 200.7±36.5 %.

What about the “Flat T-wave-like, number of observations/total well numbers” value (1 µM, 24h) of the same compound?
Its value is 2/5.

And the “BR (beat rate) % change from baseline” value (1 µM, 48h)?
The value was -37±3 %.

What about the “Beating below threshold, number of observations/total well numbers” value (1 µM, 48h) of the same compound?
The value was 0/5.

And the “Cessation of beating, number of observations/total well numbers” value (1 µM, 48h)?
The value was 0/5.

And the “EAD, number of observations/total well numbers” value (1 µM, 48h)?
Its value is 1/5.

And the “FPD (field-potential duration), % change from baseline” value (1 µM, 48h)?
Its value is 209.3±40.8 %.

What about the “FPDc … % change from baseline” value (1 µM, 48h) of the same compound?
Its value is 164.9±31.8 %.

And the “BR (beat rate) % change from baseline” value (1 µM, 72h)?
Its value is -44±3 %.

And the “Beating below threshold, number of observations/total well numbers” value (1 µM, 72h)?
Its value is 0/5.

What about the “Cessation of beating, number of observations/total well numbers” value (1 µM, 72h) of the same compound?
The value was 0/5.

And the “EAD, number of observations/total well numbers” value (1 µM, 72h)?
Its value is 1/5.

And the “FPD (field-potential duration), % change from baseline” value (1 µM, 72h)?
Its value is 260.2±58.2 %.

What about the “FPDc … % change from baseline” value (1 µM, 72h) of the same compound?
Its value is 196.4±43 %.

And the “Flat T-wave-like, number of observations/total well numbers” value (1 µM, 72h)?
The value was 1/5.

And the “BR (beat rate) % change from baseline” value (1 µM, 96h)?
Its value is -43±3 %.

And the “Beating below threshold, number of observations/total well numbers” value (1 µM, 96h)?
Its value is 0/5.

And the “Cessation of beating, number of observations/total well numbers” value (1 µM, 96h)?
The value was 0/5.

And the “EAD, number of observations/total well numbers” value (1 µM, 96h)?
The value was 1/5.

And the “FPD (field-potential duration), % change from baseline” value (1 µM, 96h)?
The value was 208.7±49.5 %.

What about the “FPDc … % change from baseline” value (1 µM, 96h) of the same compound?
The value was 156.3±38.4 %.

What about the “Flat T-wave-like, number of observations/total well numbers” value (1 µM, 96h) of the same compound?
Its value is 1/5.

And the “prolongation of FPD” value (1 and 0.3 µM, acute and chronic time points)?
The value was “significant dose-dependent prolongation of the FPD”.

What about the cessation of beating (any concentration) of the same compound?
Its cessation of beating is “no cessation of beating occurred in any concentration”.
